# According to patent US11026989B2, “Composition for treating erectile dysfunction by Orchis anatolica extract” (Jordan University of Science and Technology, priority 2016, dated 2021):
# System: penile tissue (corpus cavernosum strips)
# Assay: In vitro relaxation of penile tissue strips in physiological organ bath after induced contraction
# Set-up: species or system New Zealand rabbit and albino rats
# Description: A water-jacketed physiological organ bath provides a stable and adjustable way of organ stability and temperature control. Substrates and other nutrients that are required to sustain tissue function were provided via a physiological solution (e.g., Krebs solution). This will allowed the study of evoked tissue responses to pharmacological agents and/or electrical stimulation.
# Penile tissues from a mature New Zealand rabbit (e.g., 3-3.5 kg) and albino rats (e.g., 300-350 g) were dissected out and cleaned of the outer adherent connective tissue, and the two corpora cavernosa integral tissues were obtained. Each corpus cavernosum was cut lengthwise into 4 pieces measuring about 2 mm thick and 10-12 mm long out of which a 7-8 mm long piece was taken from the middle part of each strip by removing the two unwanted edges of these strips. The strips were kept in a well oxygenated Krebs solution, pre-cooled to 4° C., and placed in a refrigerator until the initiation of the experiment.
# Each erectile tissue (“ET”) was mounted by clipping both of its ends within the bath. An ET strip was hooked to one clip end, which was tied to a metal wire (e.g., mounting hook), which was fixed to a bottom of a water-jacketed chamber. The top end of the strip was clipped to a cotton thread and connected to a lever (e.g., arm), which was connected to a Harvard isotonic transducer. The former was connected to a Harvard Universal Oscillograph for recording the force of contraction to an isotonic transducer. The tissue strip was stretched against a fixed caliber weight of 2 gm attached to the lever of the isotonic transducer. The free movable lever end was horizontally adjusted receptive to any movement according to the contraction and relaxation of the ET within the path when stimulated. Before each experiment, the transducer was calibrated two times against this caliber weight. The bath into which the tissue was mounted contained 25 ml of oxygenated Krebs solution with continuous oxygenation (gas mixture of 95% O2 and 5% CO2 and at 37° C.) and left for 60 minutes before starting the experiment.
# Certain specifications for collection of Orchis anatolica plants were adopted so that the intact roots together with the potato-shaped bulb parts were collected and preserved intact. Bulbs were detached from roots and left to dry at air temperature, and then separated into two categories: a large rounded sized bulb resembling the small sized potato (male bulb) and an elongated small sized bulb (female or feeding bulb). The round potato shaped bulb was chopped and grinded using an electrical grinder until a powder was obtained. Each 500 g of dried and grinded orchis roots was then refluxed in (2 L) 70% ethanol at 50° C. for 36 hours in a continuous extraction (soxhlet) apparatus. Ethanol extract was filtered and concentrated under reduced pressure at 50° C. using a rotary evaporator. Red Korean Panax Ginseng was obtained from a South Korea market as a concentrated powder vacuumed and sealed in metal container packages of 50 g (commercially obtained from KOREAEXPORT CO LTD). Powder was dissolved well in distilled water from which different concentrations were used. Different doses of both Orchis anatolica extract and Red Korean Panax Ginseng were used to obtain and determine the maximum effect of ET response.
# A 1 liter Krebs stock solution was prepared the day before the experiment containing the following chemicals: NaCl (125 mM), NaHCO3 (20 mM), KCl (4 mM), NaH2PO4 (1.8 mM), MgSO4 (1.8 mM), CaCl2 (1.8 mM), glucose (10 mM), and HEPES buffer (10 mM) (see Table 1). For a final 1 liter Krebs solution, 725 ml ringer and […] Deionized water were added. The solution pH was set to 7.4 after gassing with 95% O2/5% CO2 for 30 minutes before it was used. Krebs solutions were freshly prepared on each experimental day from the stock solutions stored in the refrigerator. […]
Structure (SMILES),"Time dependent penile tissue contraction (−) and relaxation (+) response to treatment (5 minutes, 0.0509 gm stock solution) [%^]","Time dependent penile tissue contraction (−) and relaxation (+) response to treatment (10 minutes, 0.0509 gm stock solution) [%^]","Time dependent penile tissue contraction (−) and relaxation (+) response to treatment (15 minutes, 0.0509 gm stock solution) [%^]","Time dependent penile tissue contraction (−) and relaxation (+) response to treatment (20 minutes, 0.0509 gm stock solution) [%]","Time dependent penile tissue contraction (−) and relaxation (+) response to treatment (25 minutes, 0.0509 gm stock solution) [%]","Time dependent penile tissue contraction (−) and relaxation (+) response to treatment (5 minutes, 0.002 g/50 ml Krebs, after phenylephrine contraction) [%]","Time dependent penile tissue contraction (−) and relaxation (+) response to treatment (15 minutes, 0.002 g/50 ml Krebs, after phenylephrine contraction) [%]","Time dependent penile tissue contraction (−) and relaxation (+) response to treatment (25 minutes, 0.002 g/50 ml Krebs, after phenylephrine contraction) [%]"
CNC[C@H](O)c1cccc(O)c1 [L-Phenylephrine],−6.8,−8.2,−9.5,−10,−10,–,–,–
CCCc1nn(C)c2c(=O)[nH]c(-c3cc(S(=O)(=O)N4CCN(C)CC4)ccc3OCC)nc12 [Sildenafil],–,–,–,–,–,11,12,24
